# Assay results as given in article PMC3485666 (British Journal of Pharmacology, 2012).
# Legend:
# [1] = biological target: human S1P1 receptors (Homo sapiens, UniProt P21453); experiment: GTPγ[35S] binding assay, human S1P1; format: biochemical
# [2] = biological target: myc-tagged human S1P1 receptors (Homo sapiens, UniProt P21453); experiment: Agonist-mediated internalization of S1P1 receptors in CHO cells by flow cytometry; format: cell-based; details: for Internalization of S1P1 receptors: 1 h incubation
# myc-tagged human S1P1 receptors, sequence (P21453 whole entry): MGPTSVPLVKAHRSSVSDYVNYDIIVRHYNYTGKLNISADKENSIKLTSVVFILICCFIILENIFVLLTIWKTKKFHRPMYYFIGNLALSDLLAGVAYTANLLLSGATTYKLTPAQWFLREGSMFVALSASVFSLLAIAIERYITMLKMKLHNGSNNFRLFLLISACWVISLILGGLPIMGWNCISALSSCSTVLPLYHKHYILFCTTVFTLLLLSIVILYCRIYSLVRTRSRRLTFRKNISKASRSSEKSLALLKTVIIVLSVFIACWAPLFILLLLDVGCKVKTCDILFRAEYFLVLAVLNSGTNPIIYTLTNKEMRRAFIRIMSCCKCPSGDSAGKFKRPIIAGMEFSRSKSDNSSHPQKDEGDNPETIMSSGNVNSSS
# [3] = biological target: human S1P2 receptors (Homo sapiens, UniProt O95136); experiment: GTPγ[35S] binding assay, human S1P2; format: biochemical
# human S1P2 receptors, sequence (O95136 whole entry): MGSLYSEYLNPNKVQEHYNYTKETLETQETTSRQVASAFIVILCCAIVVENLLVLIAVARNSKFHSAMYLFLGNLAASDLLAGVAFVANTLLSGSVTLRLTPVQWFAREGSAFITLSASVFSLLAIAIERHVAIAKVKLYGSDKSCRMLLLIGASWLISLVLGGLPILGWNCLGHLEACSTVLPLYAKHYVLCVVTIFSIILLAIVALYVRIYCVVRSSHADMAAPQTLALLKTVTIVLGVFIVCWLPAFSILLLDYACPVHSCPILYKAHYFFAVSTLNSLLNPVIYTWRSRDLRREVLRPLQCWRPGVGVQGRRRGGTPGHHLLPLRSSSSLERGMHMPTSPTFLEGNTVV
# [4] = system: heart rate; experiment: Phase I multiple-dose study: heart rate (Holter monitoring); format: in vivo, human; details: for Decrease in mean heart rate Emax0-24 versus placebo: day 1; for Mean heart rate reduction from time-matched day −1: 2 h post dose of day 1
# [5] = biological target: T1, human S1P4 receptors (Homo sapiens, UniProt O95977); experiment: GTPγ[35S] binding assay, human S1P4; format: biochemical; details: read-out: %Emax (percentage of maximum stimulation)
# T1 sequence (O95977 1-384): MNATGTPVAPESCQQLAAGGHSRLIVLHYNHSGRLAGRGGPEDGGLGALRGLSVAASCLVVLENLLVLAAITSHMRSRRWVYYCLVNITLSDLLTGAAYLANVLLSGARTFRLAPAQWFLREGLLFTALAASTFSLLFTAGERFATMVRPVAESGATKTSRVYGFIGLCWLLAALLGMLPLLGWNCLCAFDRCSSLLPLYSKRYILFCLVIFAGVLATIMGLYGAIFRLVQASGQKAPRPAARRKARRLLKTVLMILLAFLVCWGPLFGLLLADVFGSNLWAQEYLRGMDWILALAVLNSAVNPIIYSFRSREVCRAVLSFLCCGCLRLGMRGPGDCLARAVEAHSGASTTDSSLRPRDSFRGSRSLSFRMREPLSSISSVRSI
# [6] = system: leukocyte subsets in whole blood; experiment: Phase I multiple-dose study: leukocyte subsets by flow cytometry; format: in vivo, human; details: 10 mg
# [7] = system: healthy subjects; experiment: Phase I multiple-dose study: safety and tolerability; format: in vivo, human
# [8] = biological target: human S1P5 receptors (Homo sapiens, UniProt Q9H228); experiment: GTPγ[35S] binding assay, human S1P5; format: biochemical; details: read-out: %Emax (percentage of maximum stimulation), S1P5
# human S1P5 receptors, sequence (Q9H228 whole entry): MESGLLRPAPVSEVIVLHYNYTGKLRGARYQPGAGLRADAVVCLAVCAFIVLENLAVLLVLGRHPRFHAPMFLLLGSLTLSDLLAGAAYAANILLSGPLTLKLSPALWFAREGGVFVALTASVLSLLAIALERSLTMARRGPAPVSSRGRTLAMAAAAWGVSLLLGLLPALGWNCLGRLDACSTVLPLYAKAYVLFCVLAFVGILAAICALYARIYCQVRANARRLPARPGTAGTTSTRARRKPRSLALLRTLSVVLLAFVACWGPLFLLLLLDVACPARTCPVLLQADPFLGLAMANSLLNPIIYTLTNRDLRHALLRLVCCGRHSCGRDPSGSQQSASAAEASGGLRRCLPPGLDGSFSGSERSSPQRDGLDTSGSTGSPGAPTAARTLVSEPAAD
# [9] = system: peripheral absolute lymphocyte count (ALC); experiment: Phase I multiple-dose study: absolute lymphocyte count; format: in vivo, human; details: for Difference in mean %Emax of ALC, BAF312 versus placebo: 28 days, ANCOVA; for Average time to reach the lower limit of the normal ALC range after stopping dosing at steady state: predicted by pharmacokinetic/pharmacodynamic model
# [10] = system: experimental autoimmune encephalomyelitis (EAE); experiment: Chronic EAE in DA rats, therapeutic dosing; format: in vivo; details: DA rat, days 11–34
# [11] = clinical; details: both, human, in vivo, Complete wash-out (five effective half-lives) after treatment discontinuation
# [12] = biological target: human S1P3 receptors (Homo sapiens, UniProt Q99500); experiment: GTPγ[35S] binding assay, human S1P3; format: biochemical
# human S1P3 receptors, sequence (Q99500 whole entry): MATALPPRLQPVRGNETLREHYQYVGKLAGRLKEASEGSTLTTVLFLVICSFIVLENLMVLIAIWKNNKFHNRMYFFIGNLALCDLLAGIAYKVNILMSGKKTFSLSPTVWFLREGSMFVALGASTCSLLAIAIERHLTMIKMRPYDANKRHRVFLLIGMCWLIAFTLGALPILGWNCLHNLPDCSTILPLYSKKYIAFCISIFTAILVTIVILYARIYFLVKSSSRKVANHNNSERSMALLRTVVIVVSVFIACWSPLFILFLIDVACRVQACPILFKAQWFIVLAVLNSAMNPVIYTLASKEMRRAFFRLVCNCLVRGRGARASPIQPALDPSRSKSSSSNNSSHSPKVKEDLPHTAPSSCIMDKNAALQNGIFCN
# [13] = Phase I multiple-dose study: plasma pharmacokinetics; details: for AUCτ / concentration at 28 day / half-life at 28 day: geometric mean [%CV]; for Cmax at 28 day / Tmax / Tmax at 28 day / concentration at 28 day / half-life at 28 day / Cmax / half-life: both, human, plasma, oral; for half-life at 28 day: based on drug accumulation at steady-state
# human S1P1 receptors, sequence (P21453 whole entry): as the sequence (P21453 whole entry) above
smiles,measurement,setting,value
"CCc1cc(/C(C)=N/OCc2ccc(C3CCCCC3)c(C(F)(F)F)c2)ccc1CN1CC(C(=O)O)C1 [BAF312, 1-(4-{1-[(E)-4-cyclohexyl-3-trifluoromethylbenzyloxyimino]-ethyl}-2-ethylbenzyl)-azetidine-3-carboxylic acid]",EC50,[1],0.39 ± 0.07 nM
same,Internalization of S1P1 receptors,"[2]; 10 nM, 2 experiments",86 ± 4%
same,Internalization of S1P1 receptors,"[2]; 100 nM, 2 experiments",99 ± 3%
same,S1P1 receptors localized intracellularly,"[2]; 1 µM, 1 h incubation followed by 3 h without compound, mean ± SD",87 ± 0.5%
same,Internalization of S1P1 receptors,"[2]; 1 µM, mean ± SD",91 ± 4%
same,Surface expression of S1P1 receptors,[2]; incubated for up to 12 h without compound (data not shown),remained low
same,EC50,[3],> 10000 nM
same,Decrease in mean heart rate Emax0-24 versus placebo,"[4]; 0.3 mg, 90% CI in brackets, not significant",−0.92 bpm
same,Decrease in mean heart rate Emax0-24 versus placebo,[4]; 1 mg,−6.41 bpm
same,Decrease in mean heart rate Emax0-24 versus placebo,[4]; 2.5 mg,−5.44 bpm
same,Mean heart rate reduction from time-matched day −1,[4]; 10 mg,approximately 24 ± 6 bpm
same,Decrease in mean heart rate Emax0-24 versus placebo,[4]; 10 mg,−13.88 bpm
same,Mean heart rate reduction from time-matched day −1,[4]; 20 mg,~29 ± 10 bpm
same,Subjects with asymptomatic second degree atrioventricular (AV) block,"[4]; active groups, each on day 1",three
same,Time of maximum decrease in mean ventricular heart rate post dose,"[4]; day 1, all (0.3–20 mg) doses",~2 h
same,Emax,[5],90 ± 9%
same,Effect on B and T cell counts,[6]; baseline to end of treatment,strong reduction in cell counts
same,Effect on monocyte counts,[6]; baseline to end of treatment,Little or no effect
same,Leukocyte subset cell counts after discontinuation,[6]; three weeks after discontinuation (data not shown),returned to baseline levels
same,Subjects experiencing AEs,[7]; 0.3 mg dose group,three
same,Subjects experiencing AEs,[7]; 1 mg dose group,three
same,Subjects experiencing AEs,[7]; 2.5 mg dose group,four
same,Subjects experiencing AEs,[7]; 10 mg dose group,six
same,Subjects experiencing AEs,[7]; 20 mg dose group,six
same,Macular oedema by ocular coherence tomography,"[7]; 0.3–20 mg once daily, 28 days",no signs of macular oedema
same,Tolerability,"[7]; 0.3–20 mg once daily, 28 days, healthy subjects",well tolerated
same,Elevations in alanine aminotransferase level,[7]; by dose group,occurred most frequently in subjects in the BAF312 20 mg dose group
same,Pulmonary function tests versus placebo,[7]; not related to dose and day (data not shown),"mild to moderate, statistically significant decreases"
same,Visual acuity scores over treatment days,[7]; regardless of the dose,no notable changes
same,Serious AEs,[7]; whole trial,no serious AEs
same,Emax,[8],~100%
same,"Difference in mean %Emax of ALC, BAF312 versus placebo","[9]; 0.3 mg once daily, 90% CI in parentheses",32.8%
same,"Difference in mean %Emax of ALC, BAF312 versus placebo",[9]; 1 mg once daily,61.6%
same,Average time to reach the lower limit of the normal ALC range after stopping dosing at steady state,[9]; 1 mg,approximately 24 h
same,"Difference in mean %Emax of ALC, BAF312 versus placebo",[9]; 2.5 mg once daily,56.7%
same,"Difference in mean %Emax of ALC, BAF312 versus placebo",[9]; 10 mg once daily,74.6%
same,Average time to reach the lower limit of the normal ALC range after stopping dosing at steady state,[9]; 10 mg,~123 h
same,"Difference in mean %Emax of ALC, BAF312 versus placebo",[9]; 20 mg once daily,76.1%
same,Time of maximal ALC reduction post dose,"[9]; day 1, healthy subjects",4 to 6 h
same,Study day by which ALC returned to the normal range,"[9]; treatment stopped on day 28, dose groups 0.3–10 mg",≤ 35 days
same,Disease scores (AUC from days 12 to 34) versus vehicle,[10]; 0.03 mg·kg^−1 oral once daily,borderline effect
same,Disease scores (AUC from days 12 to 34) versus vehicle,[10]; 0.3 mg·kg^−1 oral once daily,significant reduction
same,Disease scores (AUC from days 12 to 34) versus vehicle,[10]; 3 mg·kg^−1 oral once daily,significant reduction
same,half-life,[11],151 h
same,EC50,[12],> 1000 nM
same,AUC0–24 h,"[13]; Day 1, 0.3 mg·day^−1",36.2 [10] h^*ng·mL^−1
same,AUC0–24 h,"[13]; Day 1, 1 mg·day^−1",136 [8] h^*ng·mL^−1
same,AUC0–24 h,"[13]; Day 1, 2.5 mg·day^−1",293 [85] h^*ng·mL^−1
same,AUC0–24 h,"[13]; Day 1, 10 mg·day^−1",1370 [11] h^*ng·mL^−1
same,AUC0–24 h,"[13]; Day 1, 20 mg·day^−1",2740 [14] h^*ng·mL^−1
same,AUCτ,"[13]; Day 28, 0.3 mg·day^−1",97.9 [19] h^*ng·mL^−1
same,AUCτ,"[13]; Day 28, 1 mg·day^−1",282 [16] h^*ng·mL^−1
same,AUCτ,"[13]; Day 28, 2.5 mg·day^−1",692 [45] h^*ng·mL^−1
same,AUCτ,"[13]; Day 28, 10 mg·day^−1",2580 [24] h^*ng·mL^−1
same,"Cmin,ss","[13]; Day 28, 20 mg·day^−1, arithmetic mean (SD)",166 (88.0) ^D ng·mL^−1
same,AUCτ,"[13]; Day 28, 20 mg·day^−1",6370 [23] h^*ng·mL^−1
same,Cmax at 28 day,[13]; 0.3 mg·day^−1,5.31 ng/mL
same,Tmax,[13]; 0.3 mg·day^−1,3 h
same,Tmax at 28 day,[13]; 0.3 mg·day^−1,3.5 h
same,concentration at 28 day,"[13]; 0.3 mg·day^−1, Cavg, ss, Day 28, 0.3 mg·day^−1",4.08 ng/mL
same,concentration at 28 day,"[13]; 0.3 mg·day^−1, Cmin,ss, Day 28, 0.3 mg·day^−1",2.83 ng/mL
same,half-life at 28 day,"[13]; 0.3 mg·day^−1, Effective T1/2, Day 28, 0.3 mg·day^−1",36.2 h
same,Cmax,[13]; 1 mg·day^−1,8.01 ng/mL
same,Cmax at 28 day,[13]; 1 mg·day^−1,14.9 ng/mL
same,Tmax,[13]; 1 mg·day^−1,4.5 h
same,Tmax at 28 day,[13]; 1 mg·day^−1,3 h
same,concentration at 28 day,"[13]; 1 mg·day^−1, Cavg, ss, Day 28, 1 mg·day^−1",11.7 ng/mL
same,concentration at 28 day,"[13]; 1 mg·day^−1, Cmin,ss, Day 28, 1 mg·day^−1",7.74 ng/mL
same,half-life at 28 day,"[13]; 1 mg·day^−1, Effective T1/2, Day 28, 1 mg·day^−1",25.2 h
same,Cmax,[13]; 2.5 mg·day^−1,17.4 ng/mL
same,Cmax at 28 day,[13]; 2.5 mg·day^−1,38.3 ng/mL
same,Tmax,[13]; 2.5 mg·day^−1,3 h
same,Tmax at 28 day,[13]; 2.5 mg·day^−1,4 h
same,concentration at 28 day,"[13]; 2.5 mg·day^−1, Cavg, ss, Day 28, 2.5 mg·day^−1",28.8 ng/mL
same,concentration at 28 day,"[13]; 2.5 mg·day^−1, Cmin,ss, Day 28, 2.5 mg·day^−1",15.2 ng/mL
same,Cmax,[13]; 10 mg·day^−1,84.1 ng/mL
same,Cmax at 28 day,[13]; 10 mg·day^−1,147 ng/mL
same,Tmax,[13]; 10 mg·day^−1,3 h
same,Tmax at 28 day,[13]; 10 mg·day^−1,3 h
same,concentration at 28 day,"[13]; 10 mg·day^−1, Cavg, ss, Day 28, 10 mg·day^−1",107 ng/mL
same,concentration at 28 day,"[13]; 10 mg·day^−1, Cmin,ss, Day 28, 10 mg·day^−1",70.6 ng/mL
same,half-life at 28 day,"[13]; 10 mg·day^−1, Effective T1/2, Day 28, 10 mg·day^−1",21.9 h
same,Cmax,[13]; 20 mg·day^−1,162 ng/mL
same,Cmax at 28 day,[13]; 20 mg·day^−1,359 ng/mL
same,Tmax,[13]; 20 mg·day^−1,4 h
same,Tmax at 28 day,[13]; 20 mg·day^−1,3 h
same,concentration at 28 day,"[13]; 20 mg·day^−1, Cavg, ss, Day 28, 20 mg·day^−1",265 ng/mL
same,half-life at 28 day,"[13]; 20 mg·day^−1, Effective T1/2, Day 28, 20 mg·day^−1",28.8 h
same,half-life,"[13]; Effective elimination half-life based on drug accumulation at steady state, range over dose groups",22 to 38 h
same,half-life,"[13]; Effective elimination half-life, mean, mean over dose groups",30 h
same,Dose proportionality of pharmacokinetics,[13]; dose range of 0.3 to 20 mg,increase proportionally with the dose
same,Time to steady-state concentrations,[13]; multiple once-daily administration,approximately 6 days
